Among the data in ChEMBL document CHEMBL1125766, “Synthesis and antiviral activity of certain guanosine analogues in the thiazolo[4,5-d]pyrimidine ring system” (1991) are Mean survival time and Survivors values, retold here.

Holding throughout (format): functional
In test [1] the test system is Mus musculus. In words: Compound was tested for mean survival time through 21 days after administration of 200 mg/kg, 24 and 18 hr prior to virus inoculation ( forest virus) in mice.
Test [2] relates to Mus musculus. Put plainly: Compound was tested for mean survival time through 21 days after administration of 25 mg/kg, 24 and 18 hr prior to virus inoculation ( forest virus) in mice.
Test [3] deals with Mus musculus. In words: Compound was tested for mean survival time through 21 days after intraperitoneal administration of 150 mg/kg, 24 hr prior to virus inoculation ( forest virus) in mice.
Test [4] relates to Mus musculus. Put plainly: Compound was tested for mean survival time through 21 days after intravenous administration of 150 mg/kg, 24 hr prior to virus inoculation ( forest virus) in mice.
Test [5] deals with Mus musculus. In words: Compound was tested for mean survival time through 21 days after oral administration of 150 mg/kg, 24 hr prior to virus inoculation ( forest virus) in mice.
Test [6] deals with Mus musculus. In words: Compound was tested for mean survival time through 21 days after subcutaneous administration of 150 mg/kg, 24 hr prior to virus inoculation ( forest virus) in mice.
For test [7], the system named is Mus musculus. Put plainly: Compound was tested for its activity against forest virus infection in mice, activity was determined by measuring the number of survived mice after 150 mg/kg oral administration.
Test [8] concerns Mus musculus. In words: Compound was tested for its activity against forest virus infection in mice, activity was determined by measuring the number of survived mice after 150 mg/kg subcutaneous administration.
The test system of test [9] is Mus musculus. In words: Compound was tested for its activity against forest virus infection in mice, activity was determined by measuring the number of survived mice after 200 mg/kg administration.
For test [10], the system named is Mus musculus. In words: Compound was tested for its activity against forest virus infection in mice, activity was determined by measuring the number of survived mice after 25 mg/kg administration.
Test [11] deals with Mus musculus. Put plainly: Compound was tested for its activity against forest virus infection in mice, activity was determined by measuring the number of survived mice after 50 mg/kg administration.
Test [12] has as its system Mus musculus. Put plainly: Compound was tested for its activity against forest virus infection in mice, activity was determined by measuring the number of survived mice after 100 mg/kg administration.
In test [13] the test system is Mus musculus. Put plainly: Compound was tested for its activity against forest virus infection in mice, activity was determined by measuring the number of survived mice after 100 mg/kg administration.
Test [14] relates to Mus musculus. Put plainly: Compound was tested for its activity against intraperitoneal administration.
The subject of test [15] is Mus musculus. Put plainly: Compound was tested for its activity against forest virus infection in mice, activity was determined by measuring the number of survived mice after 150 mg/kg intravenous administration.
Test [16] concerns Mus musculus. In words: Compound was tested for mean survival time through 21 days after administration of 100 mg/kg, 24 and 18 hr prior to virus inoculation ( forest virus) in mice.

Where “and” joins values, the source holds several entries; their conditions need not be identical. Equal values may be shown once.

`Nc1nc(=O)c2sc(=O)n([C@@H]3O[C@H](CO)[C@@H](O)[C@H]3O)c2[nH]1` [ISATORIBINE]: the Mean survival time in test [1] was above 21 days; in [2], 8.8 days and 7.2 days; in test [3], 7 days; in test [4], 8 days; in [5] it was 7.1 days; in [6] it was above 21 days. For the same compound, the Mean survival time in test [16] (100 mg/kg) is 6.5 days and 10 days. For the same compound, the Survivors is 25% in [7]; 100% in test [8]; 100% in test [9]; 25% in test [10]; 25% in [11]; 50% in test [12]. Besides, the Survivors amounted to 92% in test [13], 91% in [14] and 73% in test [15].

Turning to `C[C@H]1OC(n2c(=O)sc3c(O)nc(N)nc32)[C@H](O)[C@@H]1O` (stereo not given in full), the Mean survival time in test [1] turned out to be 8.4 days; in test [16], 8 days. In addition, the results for the Survivors in test [9] and in test [13] were 0% and 8%, respectively.

For the compound `Nc1nc(O)c2sc(=O)n(C(CO)OC(CO)CO)c2n1` (stereo not given), the Mean survival time in test [1] stood at 7.8 days; in test [16] it was 7 days. Besides, the values for the Survivors in test [9] and in test [13] were 0% and 8%, respectively.

Regarding `Nc1nc(O)c2sc(=O)n(C3O[C@H](COP(=O)(O)O)[C@@H](O)[C@H]3O)c2n1` (stereo not given in full), the Mean survival time in test [2] is 8.1 days and 7.1 days; in [16], 6.5 days. For the same compound, the Survivors in [10] worked out at 25%; in test [11], 50%; in test [12] it was 67%.

For the compound `Nc1nc(O)c2sc(=O)n([C@H]3C[C@H](O)[C@@H](CO)O3)c2n1`, the Mean survival time in test [1] worked out at 7 days; in test [16], 6.8 days. Besides, the Survivors in [9] is reported as 83%; in [13] it was 50%.

With `CC(=O)OC[C@H]1O[C@@H](n2c(=O)sc3c(O)nc(N)nc32)[C@H](OC(C)=O)[C@@H]1OC(C)=O`, the Mean survival time was 8 days in test [3], 7.9 days in [4], 6.6 days in [5] and 7 days in test [6]. Further, the Survivors in test [7] amounted to 17%; in test [8], 82%; in test [14], 92%; in [15] it was 42%.

On to `Nc1nc(O)c2sc(=O)n([C@@H]3O[C@@H]4COP(=O)(O)O[C@H]4[C@H]3O)c2n1`, for which the Mean survival time in [2] was 7.1 days and 7.3 days; in [16], 7 days. Also, the values for the Survivors in test [10], in test [11] and in test [12] were 42%, 17% and 50%, respectively.

Take `Nc1nc(O)c2sc(=O)n(C3O[C@H](COS(N)(=O)=O)[C@@H](O)[C@H]3O)c2n1` (stereo not given in full): the Mean survival time in test [1] worked out at 8.2 days; in test [16], 8 days. In addition, the Survivors is on record as 8% in test [9] and 17% in test [13].
